# Assay results taken from US6403343B2, “Method of producing a taxane-type diterpene and a method of obtaining cultured cells which produce the taxane-type dilterpene at a high rate” (Mitsui Chemicals, Inc., priority 1993, dated 2002).
# System: cultured cells of Taxus baccata LINN
# Experiment: Growth rate and taxane yield, 21-day shake culture of Taxus baccata cells with heavy metal compound, amine, antiethylene agent or Ethrel added
# Type: cell-based
# Settings: 21 days
# Procedure: (§1) One gram (fresh weight) of the callus was inoculated to an Erlenmeyer flask containing 20 ml of liquid Woody Plant Medium to which the above-mentioned component was added to give the same concentration and shake culture was carried out with a rotary shaker (amplification of 25 mm, 100 rpm) and the callus was subcultured in every 21 days to accelerate the growth rate thereof.
# Then shake culture was carried out at 25° C. for 21 days.
# (§2) After completing the culture, cultured cells of Taxus baccata LINN were harvested by filtration and lyophilized, then the dry weight was measured to obtain the growth rate thereof. Taxane-type diterpenes were extracted from the dried callus with methanol and the like, and they were determined by comparing with standard taxol, cephalomannine, and baccatin III using high performance liquid chromatography to measure the yields of the taxane-type diterpenes.
# as §1
# One gram (fresh weight) of the cultured cells thus obtained was inoculated to an Erlenmeyer flask containing 20 ml of liquid Woody Plant Medium to which the above-mentioned component had been added to give the same concentration, then spermidine was added to it as amine to give the final concentration of 10^−9M-1M. Then shake culture was carried out at 25° C. for 21 days.
# as §2, with “cells” for “callus”, “diterpene.” for “diterpenes.”
# as §1, with “component had been” for “component was”
# One gram (fresh weight) of the cultured cells thus obtained was inoculated to an Erlenmeyer flask containing 20 ml of liquid Woody Plant Medium to which the above-mentioned component had been added to give the same concentration, and shake culture was carried out at 25° C. for 14 days.
compound,measurement,setting,value
NCCCCN [putrescine],growth rate,1 M added at start,1.0 times
same,total yield of taxane,1 M added at start,0.36 mg/L
same,yield of baccatin III,1 M added at start,0.01 mg/L
same,yield of cephalomannine,1 M added at start,0.22 mg/L
same,yield of taxol,1 M added at start,0.13 mg/L
same,growth rate,10^−1 M added at start,1.1 times
same,total yield of taxane,10^−1 M added at start,2.74 mg/L
same,yield of baccatin III,10^−1 M added at start,0.80 mg/L
same,yield of cephalomannine,10^−1 M added at start,0.97 mg/L
same,yield of taxol,10^−1 M added at start,0.97 mg/L
same,growth rate,10^−2 M added at start,1.8 times
same,total yield of taxane,10^−2 M added at start,3.18 mg/L
same,yield of baccatin III,10^−2 M added at start,1.13 mg/L
same,yield of cephalomannine,10^−2 M added at start,0.99 mg/L
same,yield of taxol,10^−2 M added at start,1.06 mg/L
same,growth rate,10^−3 M added at start,2.2 times
same,total yield of taxane,10^−3 M added at start,6.90 mg/L
same,yield of baccatin III,10^−3 M added at start,1.95 mg/L
same,yield of cephalomannine,10^−3 M added at start,1.88 mg/L
same,yield of taxol,10^−3 M added at start,3.07 mg/L
same,growth rate,10^−4 M added at start,2.6 times
same,total yield of taxane,10^−4 M added at start,22.65 mg/L
same,yield of baccatin III,10^−4 M added at start,6.60 mg/L
same,yield of cephalomannine,10^−4 M added at start,5.25 mg/L
same,yield of taxol,10^−4 M added at start,10.80 mg/L
same,growth rate,10^−5 M added at start,3.1 times
same,total yield of taxane,10^−5 M added at start,23.79 mg/L
same,yield of baccatin III,10^−5 M added at start,6.98 mg/L
same,yield of cephalomannine,10^−5 M added at start,5.37 mg/L
same,yield of taxol,10^−5 M added at start,11.44 mg/L
same,growth rate,10^−6 M added at start,3.0 times
same,total yield of taxane,10^−6 M added at start,19.44 mg/L
same,yield of baccatin III,10^−6 M added at start,5.74 mg/L
same,yield of cephalomannine,10^−6 M added at start,5.51 mg/L
same,yield of taxol,10^−6 M added at start,8.19 mg/L
same,growth rate,10^−7 M added at start,2.7 times
same,total yield of taxane,10^−7 M added at start,6.88 mg/L
same,yield of baccatin III,10^−7 M added at start,1.10 mg/L
same,yield of cephalomannine,10^−7 M added at start,2.31 mg/L
same,yield of taxol,10^−7 M added at start,3.47 mg/L
same,growth rate,10^−8 M added at start,2.8 times
same,total yield of taxane,10^−8 M added at start,2.94 mg/L
same,yield of baccatin III,10^−8 M added at start,0.40 mg/L
same,yield of cephalomannine,10^−8 M added at start,1.02 mg/L
same,yield of taxol,10^−8 M added at start,1.52 mg/L
same,growth rate,10^−9 M added at start,2.8 times
same,total yield of taxane,10^−9 M added at start,1.75 mg/L
same,yield of baccatin III,10^−9 M added at start,0.36 mg/L
same,yield of cephalomannine,10^−9 M added at start,0.70 mg/L
same,yield of taxol,10^−9 M added at start,0.69 mg/L
